From ChEMBL document CHEMBL1201862, “PubChem BioAssay data set” (2004)
Active and inactive are the calls of the source.

Legend:
[1] = C. albicans growth with fluconazole, confirmation, fluorescence, retest (AID 2467); format: functional, cell-based
Streptokinase A = target: T1, Streptokinase A (Streptococcus pyogenes serotype M1, UniProt P10520); experiment: S. pyogenes streptokinase expression inhibitors, potency, dose response, plasminogen activation absorbance, OD405 (AID 1914); format: functional, Streptococcus pyogenes M1 GAS;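 note: secreted streptokinase activity via plasminogen activation per viability signal from cell pellet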
T1 sequence (P10520 whole entry): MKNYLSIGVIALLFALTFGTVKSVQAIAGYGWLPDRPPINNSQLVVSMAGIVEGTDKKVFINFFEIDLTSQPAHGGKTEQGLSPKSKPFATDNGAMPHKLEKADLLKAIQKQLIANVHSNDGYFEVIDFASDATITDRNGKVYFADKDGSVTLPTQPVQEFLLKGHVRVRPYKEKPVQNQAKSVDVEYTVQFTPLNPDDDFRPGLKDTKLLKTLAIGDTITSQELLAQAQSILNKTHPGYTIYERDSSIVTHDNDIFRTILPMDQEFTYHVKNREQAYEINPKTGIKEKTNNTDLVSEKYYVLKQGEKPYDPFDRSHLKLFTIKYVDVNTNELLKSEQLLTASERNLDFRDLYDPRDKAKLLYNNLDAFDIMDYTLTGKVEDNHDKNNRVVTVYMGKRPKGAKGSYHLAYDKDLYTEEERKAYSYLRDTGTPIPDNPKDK

Streptococcus = experiment: Group A Streptococcus viability loss, dose response, counter-screen for streptokinase expression inhibitor project, luminescence, BacTiterGlo (AID 1915); format: functional, organism-based;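 note: potency for reduction of bacterial viability or growth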
[2] = system: Streptococcus sp. 'group A'; experiment: growth inhibition of control SK(-) GAS strain, dose response, counter-screen for streptokinase expression inhibitor project, luminescence, kanamycin, BacTiterGlo, confirmation (AID 1900); format: functional, organism-based
Aminopeptidase N = target: T2, Aminopeptidase N (Plasmodium falciparum FcB1/Columbia, UniProt O96935); experiment: P. falciparum M1AAP inhibitors, biochemical, fluorogenic H-Leu-NHMec substrate, 1536-well (AID 1445); set-up: species or system Plasmodium falciparum 3D7, 3D7
T2 sequence (O96935 whole entry): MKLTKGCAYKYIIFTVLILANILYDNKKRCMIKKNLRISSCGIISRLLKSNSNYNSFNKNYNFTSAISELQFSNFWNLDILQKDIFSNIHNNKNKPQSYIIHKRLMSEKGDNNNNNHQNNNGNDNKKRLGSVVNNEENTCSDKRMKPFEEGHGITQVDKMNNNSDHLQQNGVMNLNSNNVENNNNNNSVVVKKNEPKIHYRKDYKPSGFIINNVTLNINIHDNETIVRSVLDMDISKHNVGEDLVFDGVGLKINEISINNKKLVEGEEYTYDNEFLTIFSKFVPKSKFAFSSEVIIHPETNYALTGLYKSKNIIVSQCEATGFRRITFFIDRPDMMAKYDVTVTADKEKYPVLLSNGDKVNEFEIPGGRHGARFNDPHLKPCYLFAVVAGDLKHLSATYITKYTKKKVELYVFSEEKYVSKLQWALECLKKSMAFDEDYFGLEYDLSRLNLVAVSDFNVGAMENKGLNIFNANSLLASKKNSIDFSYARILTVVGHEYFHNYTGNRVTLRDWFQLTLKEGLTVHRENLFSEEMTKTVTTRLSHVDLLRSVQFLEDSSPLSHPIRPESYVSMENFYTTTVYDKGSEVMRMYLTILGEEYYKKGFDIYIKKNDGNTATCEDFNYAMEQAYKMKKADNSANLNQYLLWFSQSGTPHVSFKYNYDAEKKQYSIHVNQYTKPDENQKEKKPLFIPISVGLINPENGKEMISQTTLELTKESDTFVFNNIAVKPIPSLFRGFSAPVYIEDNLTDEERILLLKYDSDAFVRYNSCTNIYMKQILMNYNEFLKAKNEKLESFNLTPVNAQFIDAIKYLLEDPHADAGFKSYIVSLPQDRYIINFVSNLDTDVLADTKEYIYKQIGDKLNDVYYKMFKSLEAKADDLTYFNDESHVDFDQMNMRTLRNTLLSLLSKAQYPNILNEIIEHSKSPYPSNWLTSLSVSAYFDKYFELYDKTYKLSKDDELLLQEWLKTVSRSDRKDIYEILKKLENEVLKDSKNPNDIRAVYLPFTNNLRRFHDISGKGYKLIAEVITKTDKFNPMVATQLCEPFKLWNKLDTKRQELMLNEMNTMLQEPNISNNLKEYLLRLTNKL

[3] = NIH-3T3 fibroblast cytotoxicity, dose response, cytotoxicity control, cell-based, fluorescence, Alamar Blue, secondary assay (AID 2327); format: functional;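 note: NIH-3T3 mouse fibroblasts cultured with fluconazole at 8 µg/mL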
[4] = HIV-1 Env-mediated cell fusion inhibitors, dose response, CCR5-tropic Env (AID 2279); format: functional
Genome polyprotein = Genome polyprotein (dengue virus type 2, UniProt P29990); experiment: Dengue-2 NS5 methyltransferase inhibitors, primary screen, biochemical, confirmation dose response (AID 588689); format: functional
[5] = Luminescence Cell-Based Dose Response to Identify Activators of 5'UTR Stem-Loop Driven Prion Protein mRNA Translation in H4-C Neuroglioblastoma Cells. [Related pubchem assays: 1829 (Project Summary), 1814 (Primary HTS)]; format: functional
[6] = Luminescence Cell-Based Dose Confirmation HTS to Identify Activators of 5'UTR Stem-Loop Driven Alpha-Synuclein mRNA Translation in H4 Neuroglioblastoma Cells. [Related pubchem assays: 1829 (Project Summary), 1814 (Primary HTS)]; format: functional
H4 = experiment: Luminescence Cell-Based Dose Response HTS to Identify Activators of 5'UTR Stem-Loop Driven Prion Protein mRNA Translation in H4 Neuroglioblastoma Cells. [Related pubchem assays: 1829 (Project Summary), 1814 (Primary HTS)]; format: functional; details: Homo sapiens
[7] = Luminescence Cell-Based Dose Response to Identify Activators of Luciferase Translation or Activity in H4-C Neuroglioblastoma Cells. [Related pubchem assays: 1829 (Project Summary), 1814 (Primary HTS)]; format: functional
[8] = Luminescence Cell-Based Dose Confirmation to Identify Activators of 5'UTR Stem-Loop Driven Alpha-Synuclein mRNA Translation in H4 Neuroglioblastoma Cells. [Related pubchem assays: 1829 (Project Summary), 1814 (Primary HTS)]; format: functional
[9] = target: Sphingosine 1-phosphate receptor 2 (Homo sapiens, UniProt O95136); experiment: Dose Response Cell Based Assay for Agonists of the S1P2 Receptor of Purchased Analogues. [Related pubchem assays: 729, 843, 854, 736 ]; format: functional
[10] = target: Potassium voltage-gated channel subfamily KQT member 2 (Rattus norvegicus, UniProt O88943, W236L); experiment: KCNQ2 channel potentiators, dose response, mechanism study for KCNQ2 potentiator project, cell-based, automated electrophysiology (AID 2603); format: functional
Bcl-2-like protein 10 = target: T3, Bcl-2-like protein 10 (Homo sapiens, UniProt Q9HD36); experiment: Biochemical TR3 FP assay of Bcl-B inhibitor potency, EC50 (AID 1243); format: functional
T3 sequence (Q9HD36 whole entry): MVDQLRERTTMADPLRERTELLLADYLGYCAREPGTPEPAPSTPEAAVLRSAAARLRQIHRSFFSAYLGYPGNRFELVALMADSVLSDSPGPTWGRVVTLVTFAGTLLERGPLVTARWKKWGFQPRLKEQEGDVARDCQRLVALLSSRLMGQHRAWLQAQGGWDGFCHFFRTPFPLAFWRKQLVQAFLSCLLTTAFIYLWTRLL

[11] = target: T4, Neuropeptide Y receptor type 1 (Homo sapiens, UniProt P25929); format: functional;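 note: HEK293 cells with a CNG channel challenged with NPY then isoproterenol; potency as antagonist that reverses NPY suppression of cAMP signal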
T4 sequence (P25929 whole entry): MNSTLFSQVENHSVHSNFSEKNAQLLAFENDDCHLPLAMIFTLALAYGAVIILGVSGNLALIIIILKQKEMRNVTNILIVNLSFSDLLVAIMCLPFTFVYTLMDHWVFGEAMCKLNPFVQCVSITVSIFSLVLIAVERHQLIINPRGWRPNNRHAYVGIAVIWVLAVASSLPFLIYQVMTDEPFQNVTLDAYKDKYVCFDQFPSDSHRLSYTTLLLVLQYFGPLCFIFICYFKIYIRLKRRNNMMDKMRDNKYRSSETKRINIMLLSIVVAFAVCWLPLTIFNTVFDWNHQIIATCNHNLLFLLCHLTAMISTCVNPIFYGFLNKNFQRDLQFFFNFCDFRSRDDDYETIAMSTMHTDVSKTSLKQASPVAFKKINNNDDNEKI

[12] = target: T5, Neuropeptide Y receptor type 2 (Homo sapiens, UniProt P49146); format: functional, cell-based;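 note: HEK293 cells expressing the receptor and a CNG channel; stimulus was NPY near EC95 followed by isoproterenol to raise cAMP; antagonist potency measured as restoring cAMP signal that NPY suppresses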
T5 sequence (P49146 whole entry): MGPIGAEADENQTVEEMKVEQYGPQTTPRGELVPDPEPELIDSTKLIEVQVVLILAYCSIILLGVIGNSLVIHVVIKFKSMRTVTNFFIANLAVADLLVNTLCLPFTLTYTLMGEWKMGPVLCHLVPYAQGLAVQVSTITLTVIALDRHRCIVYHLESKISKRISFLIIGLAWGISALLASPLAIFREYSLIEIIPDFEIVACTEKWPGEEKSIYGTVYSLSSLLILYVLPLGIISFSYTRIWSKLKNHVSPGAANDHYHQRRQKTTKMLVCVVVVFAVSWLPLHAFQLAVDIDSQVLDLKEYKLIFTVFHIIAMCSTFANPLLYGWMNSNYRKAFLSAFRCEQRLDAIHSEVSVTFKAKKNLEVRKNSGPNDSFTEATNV

[13] = target: DNA dC->dU-editing enzyme APOBEC-3A (Homo sapiens, UniProt P31941); experiment: Dose Response confirmation of small molecule APOBEC3A DNA Deaminase Inhibitors via a fluorescence-based single-stranded DNA deaminase assay. [Related pubchem assays (depositor defined):AID493011, AID493024]; format: functional
[14] = target: DNA dC->dU-editing enzyme APOBEC-3G (Homo sapiens, UniProt Q9HC16); format: functional;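 note: Dose-response counterscreen measuring inhibition of APOBEC3G DNA deaminase activity, run while confirming APOBEC3A inhibitors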
[15] = enhancers of respiration in Yfh1-depleted yeast, dose response, Friedreich's ataxia, plus single-dose screen (AID 1465); format: functional;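 note: yeast depleted of Yfh1p frataxin homolog grown on glycerol needing respiration; WST-1 tetrazolium dye reduction as measure of cellular dehydrogenase metabolic activity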
[16] = Luminescence Cell-Based Dose Confirmation HTS to Identify Inhibitors of Polyadenylation.; format: functional

Sphingosine 1-phosphate receptor 2, sequence (O95136 whole entry): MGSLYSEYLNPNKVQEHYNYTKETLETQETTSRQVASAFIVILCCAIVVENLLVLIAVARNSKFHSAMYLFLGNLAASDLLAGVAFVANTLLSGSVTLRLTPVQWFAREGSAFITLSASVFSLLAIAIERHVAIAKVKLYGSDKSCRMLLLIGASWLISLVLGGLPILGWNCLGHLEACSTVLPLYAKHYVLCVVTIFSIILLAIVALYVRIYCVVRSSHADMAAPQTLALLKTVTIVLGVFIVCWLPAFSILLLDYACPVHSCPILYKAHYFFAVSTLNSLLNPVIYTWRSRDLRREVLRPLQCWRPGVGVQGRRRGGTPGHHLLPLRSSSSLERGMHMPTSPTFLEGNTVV
Genome polyprotein, sequence (P29990 2492-3391 limits assumed): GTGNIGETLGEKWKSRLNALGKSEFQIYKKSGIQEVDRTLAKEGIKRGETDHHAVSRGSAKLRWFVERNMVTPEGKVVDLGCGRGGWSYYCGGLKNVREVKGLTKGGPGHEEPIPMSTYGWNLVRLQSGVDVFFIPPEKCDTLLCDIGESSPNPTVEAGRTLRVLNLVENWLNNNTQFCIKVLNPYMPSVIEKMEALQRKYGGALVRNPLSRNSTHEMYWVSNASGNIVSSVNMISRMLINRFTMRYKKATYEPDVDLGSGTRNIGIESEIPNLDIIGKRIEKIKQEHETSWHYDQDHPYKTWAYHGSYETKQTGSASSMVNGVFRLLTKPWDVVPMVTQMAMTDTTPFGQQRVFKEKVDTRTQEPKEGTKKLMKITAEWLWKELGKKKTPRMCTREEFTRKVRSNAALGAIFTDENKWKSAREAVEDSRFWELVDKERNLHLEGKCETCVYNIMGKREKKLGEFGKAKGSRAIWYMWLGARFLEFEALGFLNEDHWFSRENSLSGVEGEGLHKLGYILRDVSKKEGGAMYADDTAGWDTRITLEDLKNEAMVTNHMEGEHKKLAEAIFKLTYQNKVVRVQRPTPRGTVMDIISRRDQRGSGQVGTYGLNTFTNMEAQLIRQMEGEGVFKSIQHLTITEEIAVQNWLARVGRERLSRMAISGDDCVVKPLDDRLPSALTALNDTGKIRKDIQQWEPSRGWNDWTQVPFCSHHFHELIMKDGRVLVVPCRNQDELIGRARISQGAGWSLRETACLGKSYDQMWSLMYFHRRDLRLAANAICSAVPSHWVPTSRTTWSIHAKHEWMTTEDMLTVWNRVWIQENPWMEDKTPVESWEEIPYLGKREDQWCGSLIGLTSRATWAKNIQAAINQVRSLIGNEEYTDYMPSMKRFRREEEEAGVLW
DNA dC->dU-editing enzyme APOBEC-3G, sequence (Q9HC16 whole entry): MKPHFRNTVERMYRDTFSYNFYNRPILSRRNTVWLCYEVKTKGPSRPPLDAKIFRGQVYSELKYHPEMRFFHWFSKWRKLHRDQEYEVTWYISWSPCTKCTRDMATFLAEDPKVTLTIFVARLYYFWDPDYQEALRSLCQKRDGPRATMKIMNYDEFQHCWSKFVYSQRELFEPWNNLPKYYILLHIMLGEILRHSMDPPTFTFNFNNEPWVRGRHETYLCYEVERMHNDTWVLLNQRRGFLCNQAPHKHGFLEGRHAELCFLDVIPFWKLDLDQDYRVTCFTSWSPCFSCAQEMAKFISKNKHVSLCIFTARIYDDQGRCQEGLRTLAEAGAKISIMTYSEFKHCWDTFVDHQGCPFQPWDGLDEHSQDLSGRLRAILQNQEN
DNA dC->dU-editing enzyme APOBEC-3A, sequence (P31941 whole entry): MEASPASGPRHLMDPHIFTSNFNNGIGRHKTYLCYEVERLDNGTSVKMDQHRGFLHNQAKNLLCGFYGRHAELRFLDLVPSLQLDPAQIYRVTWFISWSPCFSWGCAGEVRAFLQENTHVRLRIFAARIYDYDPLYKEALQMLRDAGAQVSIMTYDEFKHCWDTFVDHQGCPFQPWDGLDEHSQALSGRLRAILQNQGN
Potassium voltage-gated channel subfamily KQT member 2, sequence (O88943 whole entry W236L): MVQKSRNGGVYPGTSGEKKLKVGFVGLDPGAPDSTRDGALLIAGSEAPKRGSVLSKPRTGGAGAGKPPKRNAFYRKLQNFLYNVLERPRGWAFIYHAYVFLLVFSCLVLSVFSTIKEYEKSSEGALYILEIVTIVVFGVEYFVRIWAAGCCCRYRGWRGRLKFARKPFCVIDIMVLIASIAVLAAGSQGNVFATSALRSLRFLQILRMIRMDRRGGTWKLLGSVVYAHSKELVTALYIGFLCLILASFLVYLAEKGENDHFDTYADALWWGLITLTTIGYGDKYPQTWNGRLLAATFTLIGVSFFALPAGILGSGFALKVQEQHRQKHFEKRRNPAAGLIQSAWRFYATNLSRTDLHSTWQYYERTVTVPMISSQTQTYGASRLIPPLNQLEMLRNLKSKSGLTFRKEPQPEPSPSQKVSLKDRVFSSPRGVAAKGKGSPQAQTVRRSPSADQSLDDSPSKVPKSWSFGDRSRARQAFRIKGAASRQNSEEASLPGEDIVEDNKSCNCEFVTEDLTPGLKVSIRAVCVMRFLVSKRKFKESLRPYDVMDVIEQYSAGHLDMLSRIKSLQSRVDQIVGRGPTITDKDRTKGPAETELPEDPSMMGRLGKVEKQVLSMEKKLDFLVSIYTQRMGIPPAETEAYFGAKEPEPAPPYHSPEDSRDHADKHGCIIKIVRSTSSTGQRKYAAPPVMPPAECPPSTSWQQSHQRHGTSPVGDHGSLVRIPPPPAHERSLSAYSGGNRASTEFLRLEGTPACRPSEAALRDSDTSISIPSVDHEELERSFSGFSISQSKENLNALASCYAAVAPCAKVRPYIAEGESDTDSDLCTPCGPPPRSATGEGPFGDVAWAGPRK

## CC1(C)CC(=O)C2=C(C1)c1c(ccc3ccccc13)NC2c1cc([N+](=O)[O-])cc([N+](=O)[O-])c1O (stereo not given)
[1]
  EC50: 622 nM (active)
Streptokinase A
  EC50: > 150 µM (not active)
Streptococcus
  EC50: > 150 µM (not active)
[2]
  EC50: 4.43 µM (active)
Aminopeptidase N
  IC50: 29.4 µM (active)
[3]
  EC50: 106 µM (active)
[4]
  IC50: 29.9 µM (active)
Genome polyprotein
  IC50: 25.3 µM (active)

## Cc1ccc(Nc2nc3ccccc3[nH]2)nc1
[5]
  EC50: 279 nM (active)
Streptokinase A
  EC50: > 150 µM (not active)
Streptococcus
  EC50: > 150 µM (not active)
[2]
  EC50: 5.49 µM (active)
[6]
  EC50: < 100 nM (active)
H4
  EC50: 43.1 µM (active)
[7]
  EC50: 368 nM (active)
[8]
  EC50: 601 nM (active)

## Cc1cc(C(=O)CN(C)CC(=O)N2CCOCC2)c(C)n1Cc1ccccc1
[9]
  EC50: > 30 µM (not active)

## O=C(Nc1ccc(Oc2ccc3ccccc3c2)cc1)c1ccco1
[10]
  EC50: 12 µM (active)

## CC(=O)c1cc(C#N)c(SCC(=O)c2ccc(O)c(O)c2)nc1C
Bcl-2-like protein 10
  EC50: 11 µM (active)

## Cc1ccc(N=C(S)N=C(N)Nc2nc(C)c3cc(C)ccc3n2)c(C)c1
[11]
  IC50: > 35 µM (not active)
[12]
  IC50: 22.9 µM (not active)

## C[n+]1cc(C(=O)N2CCCCC2)ccc1/C=C/c1c[nH]c2ccccc12
[13]
  IC50: 2.44 µM (active)
[14]
  IC50: 2.7 µM (active)
[15]
  EC50: > 100 µM (active)

## CC(C)CC1Nc2ncnc(N3CCN(c4ccccc4)CC3)c2N(Cc2ccccc2)C1=O (stereo not given)
[16]
  EC50: > 120 µM (not active)
